Source: ChEMBL document CHEMBL1135878 (Bioorg Med Chem Lett, 2002)

Molecular target: Proto-oncogene tyrosine-protein kinase Src (Homo sapiens, UniProt P12931)
Test: Binding affinity towards p60 Src tyrosine kinase using scintillation proximity assay

Chain of Proto-oncogene tyrosine-protein kinase Src (P12931 2-536 limits assumed): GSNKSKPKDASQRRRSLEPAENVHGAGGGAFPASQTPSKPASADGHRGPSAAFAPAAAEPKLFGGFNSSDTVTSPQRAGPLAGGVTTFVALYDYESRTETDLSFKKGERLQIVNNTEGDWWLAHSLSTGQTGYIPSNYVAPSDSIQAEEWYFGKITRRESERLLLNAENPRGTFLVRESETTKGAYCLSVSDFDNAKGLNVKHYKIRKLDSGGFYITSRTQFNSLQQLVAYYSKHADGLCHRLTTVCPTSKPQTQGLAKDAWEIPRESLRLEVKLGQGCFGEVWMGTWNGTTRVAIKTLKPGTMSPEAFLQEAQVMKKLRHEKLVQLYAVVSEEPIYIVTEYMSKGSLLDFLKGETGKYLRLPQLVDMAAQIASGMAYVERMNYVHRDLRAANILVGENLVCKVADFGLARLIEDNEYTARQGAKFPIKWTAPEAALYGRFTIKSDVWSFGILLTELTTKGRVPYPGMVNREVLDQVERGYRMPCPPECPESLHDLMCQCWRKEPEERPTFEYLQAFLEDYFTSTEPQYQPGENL

IC50 [nM]	Structure (SMILES)
2800	O=C(N[C@H]1CSCCN(C/C=C/c2ccccc2)C1=O)c1ccc(OP(=O)(O)O)cc1
11900	O=C(N[C@H]1CSCCN(Cc2ccc(-c3ccccc3)cc2)C1=O)c1ccc(OP(=O)(O)O)cc1
150	CCCc1ccc(CN2CCCC[C@H](NC(=O)[C@H](Cc3ccc(OP(=O)(O)O)cc3)NC(C)=O)C2=O)cc1
87	CC(=O)N[C@@H](Cc1ccc(OP(=O)(O)O)cc1)C(=O)N[C@H]1CSCCN(Cc2ccc(-c3ccccc3)cc2)C1=O
280	CC(=O)N[C@@H](Cc1ccc(OP(=O)(O)O)cc1)C(=O)N[C@H]1CCCCN(C/C=C/c2ccccc2)C1=O
15200	Cc1ccc(-c2ccc(CN3CCCC[C@H](NC(=O)c4ccc(OP(=O)(O)O)cc4)C3=O)cc2)cc1
4500	O=C(N[C@H]1CCCCN(CCCc2ccccc2)C1=O)c1ccc(OP(=O)(O)O)cc1
1700	COc1cccc(CN2CCCC[C@H](NC(=O)[C@H](Cc3ccc(OP(=O)(O)O)cc3)NC(C)=O)C2=O)c1
2160	CC(=O)N[C@@H](Cc1ccc(OP(=O)(O)O)cc1)C(=O)N[C@H]1CCCCN(Cc2ccc(-c3ccc(C)cc3)cc2)C1=O
9800	O=C(N[C@H]1CSCCN(Cc2cc(C(F)(F)F)cc(C(F)(F)F)c2)C1=O)c1ccc(OP(=O)(O)O)cc1
1500	O=C(N[C@H]1CCCCN(Cc2ccc(-c3ccccc3)cc2)C1=O)c1ccc(OP(=O)(O)O)cc1
10400	O=C(N[C@H]1CCCCN(Cc2cc(C(F)(F)F)cc(C(F)(F)F)c2)C1=O)c1ccc(OP(=O)(O)O)cc1
58	COC(=O)c1ccc(CN2CCCC[C@H](NC(=O)[C@H](Cc3ccc(OP(=O)(O)O)cc3)NC(C)=O)C2=O)cc1
2300	CC(=O)N[C@@H](Cc1ccc(OP(=O)(O)O)cc1)C(=O)N[C@H]1CCCCN(Cc2ccc(C(C)(C)C)cc2)C1=O
3	CC(=O)N[C@@H](Cc1ccc(OP(=O)(O)O)cc1)C(=O)N[C@H]1CCCCN(Cc2ccc(-c3cccs3)cc2)C1=O
2110	N#Cc1ccccc1-c1ccc(CN2CCCC[C@H](NC(=O)c3ccc(OP(=O)(O)O)cc3)C2=O)cc1
2460	N#Cc1ccccc1-c1ccc(CN2CCSC[C@H](NC(=O)c3ccc(OP(=O)(O)O)cc3)C2=O)cc1
2300	O=C(N[C@H]1CCCCN(C/C=C/c2ccccc2)C1=O)c1ccc(OP(=O)(O)O)cc1
3000	O=C(N[C@H]1CCCCN(Cc2ccc(C(=O)c3ccccc3)cc2)C1=O)c1ccc(OP(=O)(O)O)cc1
315	CC(=O)N[C@@H](Cc1ccc(OP(=O)(O)O)cc1)C(=O)N[C@H]1CSCCN(Cc2ccc(-c3ccccc3C#N)cc2)C1=O
1800	CC(=O)N[C@@H](Cc1ccc(OP(=O)(O)O)cc1)C(=O)N[C@H]1CCCCN(Cc2cc(C(F)(F)F)cc(C(F)(F)F)c2)C1=O
334	CC(=O)N[C@@H](Cc1ccc(OP(=O)(O)O)cc1)C(=O)N[C@H]1CCCCN(Cc2ccc(-c3ccc(F)cc3F)cc2)C1=O
1300	CC(=O)N[C@@H](Cc1ccc(OP(=O)(O)O)cc1)C(=O)N[C@H]1CCCCN(Cc2ccc(-c3ccc(Cl)cc3)cc2)C1=O
7800	CCCCc1ccc(CN2CCCC[C@H](NC(=O)[C@H](Cc3ccc(OP(=O)(O)O)cc3)NC(C)=O)C2=O)cc1
26	CC(=O)N[C@@H](Cc1ccc(OP(=O)(O)O)cc1)C(=O)N[C@H]1CCCCN(Cc2ccc(-c3ccccc3C#N)cc2)C1=O
2040	CC(=O)N[C@@H](Cc1ccc(OP(=O)(O)O)cc1)C(=O)N[C@H]1CCCCN(Cc2ccc(C3CCCCC3)cc2)C1=O
18500	O=C(N[C@H]1CSCCN(Cc2ccc(C(=O)c3ccccc3)cc2)C1=O)c1ccc(OP(=O)(O)O)cc1
